“Also recorded” adds a separate entry of the source.
What was measured:
[1] = biological target: T1, E. coli β-galactosidase (Sigma G2513) (Escherichia coli, UniProt P00722); test: biochemical; conditions: read-out: stimulation of enzyme activity by 2-mercaptoethanol (factor)
Description: (§1) The β-galactosidase from Escherichia coli used as a control was from Sigma (G2513).
(§2) The effect of K+ was determined by assaying activity in 100 mM phosphate buffer containing KCl at concentrations from 0 to 100 mM. LMG P-19143 β-galactosidase optimal activity was recorded using a KCl concentration of 80 mM whereas the E. coli β-galactosidase optimal activity was recorded at a KCl concentration of 40 mM. At theses concentrations, KCl stimulated the activity of both enzymes by a factor of 1.5.
(§3) Optimal activity of the LMG P-19143 enzyme was recorded at 80 mM 2-mercaptoethanol and that of E. coli enzyme at 40 mM 2-mercaptoethanol. At these concentrations, the reducing agent stimulated LMG P-19143 enzyme activity twofold and E. coli enzyme by a factor of 1.5.

[2] = biological target: T2, Pseudoalteromonas haloplanktis LMG P-19143 cold-active β-galactosidase (lac Z), native, SEQ ID NO: 2 (Pseudoalteromonas haloplanktis, UniProt P81650); test: effect of 2-mercaptoethanol on LMG P-19143 β-galactosidase activity; format: biochemical; set-up: ORF of 1038 residues; conditions: 80 mM 2-mercaptoethanol (optimal activity), 100 mM phosphate buffer; ONPG
T2 sequence (P81650 whole entry): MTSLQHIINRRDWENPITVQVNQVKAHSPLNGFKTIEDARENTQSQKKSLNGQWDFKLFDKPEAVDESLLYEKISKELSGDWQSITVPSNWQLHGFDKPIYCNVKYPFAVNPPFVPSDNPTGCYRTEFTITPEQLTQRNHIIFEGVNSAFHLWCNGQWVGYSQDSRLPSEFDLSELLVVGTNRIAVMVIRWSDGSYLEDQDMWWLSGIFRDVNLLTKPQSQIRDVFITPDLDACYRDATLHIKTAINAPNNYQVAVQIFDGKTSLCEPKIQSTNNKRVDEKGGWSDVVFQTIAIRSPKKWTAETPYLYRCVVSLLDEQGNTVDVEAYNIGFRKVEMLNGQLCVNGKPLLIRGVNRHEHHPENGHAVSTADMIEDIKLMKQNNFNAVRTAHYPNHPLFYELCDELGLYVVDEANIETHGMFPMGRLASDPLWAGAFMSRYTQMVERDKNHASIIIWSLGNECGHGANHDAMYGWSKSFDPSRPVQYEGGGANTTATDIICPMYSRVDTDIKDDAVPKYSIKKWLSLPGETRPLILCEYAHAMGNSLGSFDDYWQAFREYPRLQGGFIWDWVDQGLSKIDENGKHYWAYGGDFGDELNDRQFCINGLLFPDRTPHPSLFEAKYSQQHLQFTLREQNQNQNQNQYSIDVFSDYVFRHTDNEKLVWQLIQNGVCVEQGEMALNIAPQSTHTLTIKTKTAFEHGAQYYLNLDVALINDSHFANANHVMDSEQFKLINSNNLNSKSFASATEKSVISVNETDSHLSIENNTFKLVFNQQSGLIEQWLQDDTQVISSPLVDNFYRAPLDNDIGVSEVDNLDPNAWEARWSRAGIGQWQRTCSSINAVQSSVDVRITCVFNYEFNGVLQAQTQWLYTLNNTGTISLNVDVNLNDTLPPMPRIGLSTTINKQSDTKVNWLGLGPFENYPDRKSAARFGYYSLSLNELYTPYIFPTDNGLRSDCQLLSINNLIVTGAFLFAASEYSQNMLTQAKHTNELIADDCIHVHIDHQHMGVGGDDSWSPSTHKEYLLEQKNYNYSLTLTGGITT
Description: as §2, §3

[3] = biological target: T2, Pseudoalteromonas haloplanktis LMG P-19143 cold-active β-galactosidase (lac Z), native, SEQ ID NO: 2; test: biochemical; conditions: pH 7.5, read-out: residual activity after EDTA treatment (% of initial activity)
Description: The assay of β-galactosidase was carried out using 3 mM ONPG (ortho-nitrophenyl-β-galactopyranoside) as a chromogenic substrate in 100 mM sodium phosphate buffer, pH 7,3, 1 mM MgCl2, 100 mM 2-mercaptoethanol (Sigma). Activities toward the chromogenic substrate were recorded in a thermostated Uvicon 860 Spectrophotometer (Kontron) at 25° C. and calculated on the basis of an extinction coefficient for o-nitrophenol of 3.5 mM^−1 cm^−1 at 410 nm (Miller, J. H. and Reznikoff, W. S., Eds. 1978; The Operon. Cold Spring Harbor Laboratory Press, N.Y.). Assays using lactose as a substrate were carried out using various concentrations of lactose. The reaction was stopped by boiling the sample in a water bath for 3 minutes. The galactose dehydrogenase assay was used to measure the amount of galactose released by the enzyme (Schachter H. 1975, Enzymatic microassays for D-Mannose, D-Glucose, D-Galactose, L-Fucose, and D-Glucosamine. Methods Enzymol., 41: 3-10.) The specific activity of β-galactosidase is defined as micro-moles of galactose released per minute per mg of protein.
To determine the effect of divalent metal ions on activity, assays were performed in 100 mM phosphate buffer at 25° C. and pH 7.5. The enzyme preparation was treated with 5 mM EDTA to complex metal ions.

[4] = biological target: T1, E. coli β-galactosidase (Sigma G2513); test: kinetics of E. coli β-galactosidase (control) with ONPG as substrate; format: biochemical
Source text: (§4) The definition of enzyme activity units can be defined according to the substrate used with lactose as a substrate, the unit of activity is defined as the amount of enzyme which releases one micro-mole glucose in one minute under standard reaction conditions (temperature, pH). Another commonly used substrate is ortho-nitrophenyl-β-D galactopyranoside (ONPG) and in this case, the unit of activity is defined as the amount of enzyme which hydrolyses one micro-mole of ONPG in one minute under standard reaction conditions.
as §1
(§5) The activation energy (Ea) was determined from the slope (−Ea/R) of Arrhenius plot and the thermodynamic activation parameters of the reaction were calculated according to the following equations: […]
(§6) At 8° C., the kcat (s^−1) of the LMG P-19143 enzyme is twice as high as that of E. coli enzyme. Theses curves have been used to construct Arrhenius plots and to calculate the activation energy parameters of the reaction as shown in table 2.
(§7) Assays were performed with ONPG as a substrate at various concentrations and at different temperatures to determine Km and Vmax values.

[5] = biological target: T2, Pseudoalteromonas haloplanktis LMG P-19143 cold-active β-galactosidase (lac Z), native, SEQ ID NO: 2; test: kinetics of LMG P-19143 β-galactosidase with ONPG as substrate; format: biochemical; set-up: ORF of 1038 residues
Source text: as §4, §5, §6, §7

[6] = biological target: T2, Pseudoalteromonas haloplanktis LMG P-19143 cold-active β-galactosidase (lac Z), native, SEQ ID NO: 2; test: kinetics of LMG P-19143 β-galactosidase with lactose as substrate (galactose dehydrogenase assay); format: biochemical; set-up: ORF of 1038 residues; conditions: 25° C.
Source text: as §4
Km was also determined at 25° C. with lactose (1 mM to 50 mM) as a substrate.

T1 sequence (P00722 whole entry): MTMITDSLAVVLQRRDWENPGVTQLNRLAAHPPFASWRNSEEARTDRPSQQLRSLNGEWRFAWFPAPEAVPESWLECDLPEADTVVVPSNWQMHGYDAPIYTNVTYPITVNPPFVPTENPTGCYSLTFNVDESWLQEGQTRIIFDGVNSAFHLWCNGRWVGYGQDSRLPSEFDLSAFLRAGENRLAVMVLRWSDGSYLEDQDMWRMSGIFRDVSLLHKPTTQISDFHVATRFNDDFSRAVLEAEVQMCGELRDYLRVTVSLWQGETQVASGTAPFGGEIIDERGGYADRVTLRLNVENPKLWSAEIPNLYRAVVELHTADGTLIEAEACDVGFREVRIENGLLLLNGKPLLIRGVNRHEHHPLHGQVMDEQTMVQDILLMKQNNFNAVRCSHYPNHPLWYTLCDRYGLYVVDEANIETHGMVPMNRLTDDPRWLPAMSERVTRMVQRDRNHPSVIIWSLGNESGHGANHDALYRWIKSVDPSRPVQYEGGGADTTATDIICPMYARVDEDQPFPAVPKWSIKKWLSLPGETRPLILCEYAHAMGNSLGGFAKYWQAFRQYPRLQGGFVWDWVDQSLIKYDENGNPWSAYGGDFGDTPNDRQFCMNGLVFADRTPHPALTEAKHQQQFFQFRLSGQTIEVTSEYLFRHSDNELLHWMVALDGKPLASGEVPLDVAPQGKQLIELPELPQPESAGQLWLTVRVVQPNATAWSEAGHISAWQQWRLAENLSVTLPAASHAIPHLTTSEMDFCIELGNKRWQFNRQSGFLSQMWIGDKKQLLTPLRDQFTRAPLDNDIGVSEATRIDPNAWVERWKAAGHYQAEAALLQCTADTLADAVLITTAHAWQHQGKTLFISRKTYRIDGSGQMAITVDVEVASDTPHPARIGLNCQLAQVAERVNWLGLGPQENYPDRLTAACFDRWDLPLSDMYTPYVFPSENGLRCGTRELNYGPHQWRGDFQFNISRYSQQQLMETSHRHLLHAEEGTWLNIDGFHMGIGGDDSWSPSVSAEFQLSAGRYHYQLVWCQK

OCCS [2-mercaptoethanol]
fold induction at 40000 µM [1]: 1.5 | stimulation of enzyme activity by 2-mercaptoethanol [2]: twofold

O=C(O)CN(CCN(CC(=O)O)CC(=O)O)CC(=O)O [EDTA]
remaining activity at 5000 µM [3]: < 10%

O=[N+]([O-])c1ccccc1O[C@@H]1O[C@H](CO)[C@H](O)[C@H](O)[C@H]1O [ONPG, ortho-nitrophenyl-β-D galactopyranoside]
apparent Km (compared with LMG P-19143 enzyme) ([4]; 10° C.): nearly the same | kcat ([4]; 20° C.): 199 s⁻¹ | km (comparison of both enzymes) ([4]; at low temperature): comparable | kcat relative to that of E. coli enzyme ([5]; ONPG as substrate, 8° C.): twice as high | apparent Km (compared with E. coli enzyme) ([5]; ONPG as substrate, 10° C.): nearly the same | kcat ([5]; ONPG as substrate, 20° C.): 408 s⁻¹ | km (comparison of both enzymes) ([5]; ONPG as substrate, at low temperature): comparable | physiological efficiency (kcat/km) relative to E. coli enzyme ([5]; ONPG as substrate, FIG. 6): about three times higher | turnover (kcat) relative to E. coli enzyme ([5]; ONPG, temperature range of 0-40° C.): higher

OC[C@H]1O[C@@H](O[C@H]2[C@H](O)[C@@H](O)C(O)O[C@@H]2CO)[C@H](O)[C@@H](O)[C@H]1O (stereo partly drawn) [lactose]
km relative to E. coli enzyme [6]: five times lower | physiological efficiency (kcat/km) relative to E. coli β-galactosidase [6]: eighty times as high; also recorded: ninety times higher | turnover (kcat) relative to E. coli enzyme [6]: fifteen times

From patent US6727084B1, “Cold-active beta-galactosidase, the process for its preparation and the use thereof” (Universite de Liege, priority 1999, dated 2004)
